In BindingDB's records for doi:10.3109/14756366.2012.677838 (Inonu University, 2013):

Legend:
Carbonic anhydrase 1 = Carbonic anhydrase 1 (Homo sapiens, UniProt P00915); assay: CA Enzyme Assay; conditions: pH 10
Experimental: (§1) CA activity was measured by the Maren method which is based on determination of the time required for the pH to decrease from 10.0 to 7.4 due to CO2 hydration [Maren et al., J. Pharm. Exp. Ther., 130:2629-2634]. The assay solution was 0.5 M Na2CO3/0.1 M NaHCO3 (pH 10.0) and Phenol Red was added as the pH indicator.

Carbonic anhydrase 2 = Carbonic anhydrase 2 (Homo sapiens, UniProt P00918); assay: CA Enzyme Assay; conditions: pH 10
Experimental: as §1

Chain of Carbonic anhydrase 1 (P00915 whole entry): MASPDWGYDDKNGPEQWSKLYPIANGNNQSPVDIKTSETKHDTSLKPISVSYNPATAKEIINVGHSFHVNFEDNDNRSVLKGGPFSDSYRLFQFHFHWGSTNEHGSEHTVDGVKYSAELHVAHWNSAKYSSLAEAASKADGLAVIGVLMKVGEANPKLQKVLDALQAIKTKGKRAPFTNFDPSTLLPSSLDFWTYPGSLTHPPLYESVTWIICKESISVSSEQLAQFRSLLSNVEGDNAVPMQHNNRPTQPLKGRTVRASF

| IC50 (Carbonic anhydrase 1) | IC50 (Carbonic anhydrase 2) | SMILES |
| --- | --- | --- |
| 32.9 µM | 33.2 µM | CCOCCN1CN(Cc2cc(=O)oc3c(O)c(O)ccc23)c2ccccc21 [1-(2-Ethoxyethyl)-3-(4-methyl-7,8-dihydroxy-2H-chromen-2-one)benzimidazolium chloride (3e)] |
| 32.6 µM | 41.4 µM | COCCN1CN(Cc2cc(=O)oc3c(O)c(O)ccc23)c2ccccc21 [1-(2-Methoxyethyl)-3-(4-methyl-7,8-dihydroxy-2H-chromen-2-one)benzimidazolium chloride (3d)] |
| 22.1 µM | 28.9 µM | Cc1cccc(CN2CN(Cc3cc(=O)oc4c(O)c(O)ccc34)c3ccccc32)c1 [1-(3-Methylbenzyl)-3-(4-methyl-7,8-dihydroxy-2H-chromen-2-one)benzimidazolium chloride (3g)] |
| 48.1 µM | 29.7 µM | C=CCN1CN(Cc2cc(=O)oc3c(O)c(O)ccc23)c2ccccc21 [1-Allyl-3-(4-methyl-7,8-dihydroxy-2H-chromen-2-one)benzimidazolium chloride (3c)] |
